Our source for the IC50 values is ChEMBL document CHEMBL1136358, “Discovery and initial SAR of 2-amino-5-carboxamidothiazoles as inhibitors of the Src-family kinase p56(Lck)” (Bioorg Med Chem Lett, 2003).

Assay [1] addresses T1, Proto-oncogene tyrosine-protein kinase LCK (Mus musculus, UniProt P06240). The assay is described as follows: In vitro inhibition of murine Lck kinase.
Assay [2] deals with T2, Tyrosine-protein kinase Lck (Homo sapiens, UniProt P06239).
Description: Inhibitory activity human Lck(hLck) kinase
The target in assay [3] is T1, Proto-oncogene tyrosine-protein kinase LCK. The assay is described as follows: Inhibition of mouse Lck(mLck) kinase at 50 uM (Inactive).
Assay [4] has as its target T2, Tyrosine-protein kinase Lck. The assay is described as follows: Inhibition of human Lck(hLck) kinase at 50 uM (Inactive).
In assay [5] the target is Cyclin-dependent kinase 2 (Homo sapiens, UniProt P24941). Briefly: Inhibition of CDK2 kinase.
In assay [6] the target is Fibroblast growth factor receptor (Homo sapiens, UniProt P22607+P11362+P22455+P21802). Briefly: Inhibition of FGF receptor. Format: protein assay.
For the next assay, the target named is Focal adhesion kinase 1 (Homo sapiens, UniProt Q05397). Briefly: Inhibition of FAK kinase.
Assay [7] deals with Tyrosine-protein kinase Fyn (Homo sapiens, UniProt P06241). Briefly: Inhibition of Fyn kinase.
Assay [8] concerns the target Receptor tyrosine-protein kinase erbB-2 (Homo sapiens, UniProt P04626). Briefly: Inhibition of HER2 kinase.
Assay [9] concerns the target Tyrosine-protein kinase HCK (Homo sapiens, UniProt P08631). Briefly: Inhibition of Hck kinase.
In assay [10] the target is T3, Tyrosine-protein kinase JAK3 (Homo sapiens, UniProt P52333).
T3 sequence (P52333 whole entry): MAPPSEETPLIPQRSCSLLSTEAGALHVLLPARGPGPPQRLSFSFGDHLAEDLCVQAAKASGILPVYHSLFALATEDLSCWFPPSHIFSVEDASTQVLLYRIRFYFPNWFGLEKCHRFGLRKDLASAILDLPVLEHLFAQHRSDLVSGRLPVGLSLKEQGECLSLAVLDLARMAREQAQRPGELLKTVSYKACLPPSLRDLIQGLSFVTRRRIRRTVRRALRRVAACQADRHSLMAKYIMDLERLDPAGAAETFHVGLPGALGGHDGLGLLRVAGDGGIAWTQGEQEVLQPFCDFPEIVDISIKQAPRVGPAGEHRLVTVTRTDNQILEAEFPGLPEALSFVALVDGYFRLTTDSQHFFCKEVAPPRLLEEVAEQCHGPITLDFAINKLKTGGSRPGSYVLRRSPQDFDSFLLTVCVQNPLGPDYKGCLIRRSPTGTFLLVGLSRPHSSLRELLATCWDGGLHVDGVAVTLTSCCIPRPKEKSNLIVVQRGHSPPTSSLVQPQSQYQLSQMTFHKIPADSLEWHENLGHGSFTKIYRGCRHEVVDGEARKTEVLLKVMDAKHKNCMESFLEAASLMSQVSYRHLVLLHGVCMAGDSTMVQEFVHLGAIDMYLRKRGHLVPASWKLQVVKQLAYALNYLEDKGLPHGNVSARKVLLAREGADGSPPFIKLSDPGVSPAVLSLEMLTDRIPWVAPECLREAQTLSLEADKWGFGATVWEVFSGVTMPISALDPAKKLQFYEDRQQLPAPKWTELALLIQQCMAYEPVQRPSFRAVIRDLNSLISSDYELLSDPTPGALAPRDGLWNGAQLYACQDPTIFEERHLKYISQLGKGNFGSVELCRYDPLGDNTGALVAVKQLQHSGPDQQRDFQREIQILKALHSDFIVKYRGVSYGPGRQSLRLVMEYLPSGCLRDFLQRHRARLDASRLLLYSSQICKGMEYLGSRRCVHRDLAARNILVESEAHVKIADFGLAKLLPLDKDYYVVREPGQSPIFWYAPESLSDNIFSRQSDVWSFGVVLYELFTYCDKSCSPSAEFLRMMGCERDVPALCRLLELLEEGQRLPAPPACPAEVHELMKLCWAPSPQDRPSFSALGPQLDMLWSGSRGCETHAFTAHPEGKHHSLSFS
Briefly: Inhibition of Jak3 kinase.

Assay [11] deals with Proto-oncogene tyrosine-protein kinase Src (Homo sapiens, UniProt P12931). Briefly: Inhibition of Src kinase.
Assay [12] addresses T2, Tyrosine-protein kinase Lck. Briefly: Inhibition of Lck kinase.
Assay [13] has the same target. The assay is described as follows: Inhibition of human p56 Lck tyrosine kinase.
Assay [14] addresses T1, Proto-oncogene tyrosine-protein kinase LCK. Briefly: Inhibition of mouse p56 Lck tyrosine kinase.
Assay [15] has as its target T2, Tyrosine-protein kinase Lck. The assay is described as follows: Inhibition of human Lck(hLck) kinase.

T2 sequence (P06239 whole entry): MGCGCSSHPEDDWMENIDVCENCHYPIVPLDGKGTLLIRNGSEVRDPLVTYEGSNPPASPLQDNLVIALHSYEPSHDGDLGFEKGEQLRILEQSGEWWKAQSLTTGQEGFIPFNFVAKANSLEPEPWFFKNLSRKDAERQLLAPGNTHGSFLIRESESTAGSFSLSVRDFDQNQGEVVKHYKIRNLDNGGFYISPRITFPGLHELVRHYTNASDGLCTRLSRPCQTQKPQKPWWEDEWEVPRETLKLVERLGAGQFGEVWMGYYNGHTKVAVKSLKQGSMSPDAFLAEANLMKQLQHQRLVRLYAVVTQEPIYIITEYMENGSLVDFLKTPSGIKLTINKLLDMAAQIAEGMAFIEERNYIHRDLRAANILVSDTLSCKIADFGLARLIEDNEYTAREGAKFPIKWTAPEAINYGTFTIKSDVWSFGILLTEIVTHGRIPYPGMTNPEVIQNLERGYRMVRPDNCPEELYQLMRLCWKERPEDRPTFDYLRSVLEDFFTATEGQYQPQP
T1 sequence (P06240 whole entry): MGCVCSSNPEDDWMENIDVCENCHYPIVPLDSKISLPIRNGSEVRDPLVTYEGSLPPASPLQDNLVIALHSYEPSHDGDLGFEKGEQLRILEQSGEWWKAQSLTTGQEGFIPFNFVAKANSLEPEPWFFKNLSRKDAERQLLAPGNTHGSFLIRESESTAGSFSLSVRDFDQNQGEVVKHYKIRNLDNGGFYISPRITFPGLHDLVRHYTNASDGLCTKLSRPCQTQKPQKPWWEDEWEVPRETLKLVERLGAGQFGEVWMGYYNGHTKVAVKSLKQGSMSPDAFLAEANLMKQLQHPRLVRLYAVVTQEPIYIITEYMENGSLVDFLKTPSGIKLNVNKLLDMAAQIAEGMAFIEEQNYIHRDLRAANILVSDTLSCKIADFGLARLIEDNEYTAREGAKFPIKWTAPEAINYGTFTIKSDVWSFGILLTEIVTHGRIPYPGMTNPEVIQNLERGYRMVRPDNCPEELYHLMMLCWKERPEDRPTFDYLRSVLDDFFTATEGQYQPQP
Tyrosine-protein kinase Fyn, sequence (P06241 whole entry): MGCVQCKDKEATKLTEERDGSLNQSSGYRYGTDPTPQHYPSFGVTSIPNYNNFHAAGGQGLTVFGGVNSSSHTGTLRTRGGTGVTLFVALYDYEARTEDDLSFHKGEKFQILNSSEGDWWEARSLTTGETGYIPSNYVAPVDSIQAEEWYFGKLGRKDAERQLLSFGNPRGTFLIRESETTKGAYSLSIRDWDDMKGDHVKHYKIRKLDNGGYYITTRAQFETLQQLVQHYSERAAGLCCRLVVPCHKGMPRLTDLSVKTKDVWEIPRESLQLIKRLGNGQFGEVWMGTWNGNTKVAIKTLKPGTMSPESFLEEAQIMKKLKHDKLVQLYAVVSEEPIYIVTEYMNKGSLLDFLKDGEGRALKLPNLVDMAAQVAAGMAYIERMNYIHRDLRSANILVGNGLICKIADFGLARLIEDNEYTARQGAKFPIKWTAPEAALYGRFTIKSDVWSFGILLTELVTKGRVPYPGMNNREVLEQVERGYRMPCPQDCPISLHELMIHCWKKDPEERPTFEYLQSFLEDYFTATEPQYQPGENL
Focal adhesion kinase 1, sequence (Q05397 whole entry): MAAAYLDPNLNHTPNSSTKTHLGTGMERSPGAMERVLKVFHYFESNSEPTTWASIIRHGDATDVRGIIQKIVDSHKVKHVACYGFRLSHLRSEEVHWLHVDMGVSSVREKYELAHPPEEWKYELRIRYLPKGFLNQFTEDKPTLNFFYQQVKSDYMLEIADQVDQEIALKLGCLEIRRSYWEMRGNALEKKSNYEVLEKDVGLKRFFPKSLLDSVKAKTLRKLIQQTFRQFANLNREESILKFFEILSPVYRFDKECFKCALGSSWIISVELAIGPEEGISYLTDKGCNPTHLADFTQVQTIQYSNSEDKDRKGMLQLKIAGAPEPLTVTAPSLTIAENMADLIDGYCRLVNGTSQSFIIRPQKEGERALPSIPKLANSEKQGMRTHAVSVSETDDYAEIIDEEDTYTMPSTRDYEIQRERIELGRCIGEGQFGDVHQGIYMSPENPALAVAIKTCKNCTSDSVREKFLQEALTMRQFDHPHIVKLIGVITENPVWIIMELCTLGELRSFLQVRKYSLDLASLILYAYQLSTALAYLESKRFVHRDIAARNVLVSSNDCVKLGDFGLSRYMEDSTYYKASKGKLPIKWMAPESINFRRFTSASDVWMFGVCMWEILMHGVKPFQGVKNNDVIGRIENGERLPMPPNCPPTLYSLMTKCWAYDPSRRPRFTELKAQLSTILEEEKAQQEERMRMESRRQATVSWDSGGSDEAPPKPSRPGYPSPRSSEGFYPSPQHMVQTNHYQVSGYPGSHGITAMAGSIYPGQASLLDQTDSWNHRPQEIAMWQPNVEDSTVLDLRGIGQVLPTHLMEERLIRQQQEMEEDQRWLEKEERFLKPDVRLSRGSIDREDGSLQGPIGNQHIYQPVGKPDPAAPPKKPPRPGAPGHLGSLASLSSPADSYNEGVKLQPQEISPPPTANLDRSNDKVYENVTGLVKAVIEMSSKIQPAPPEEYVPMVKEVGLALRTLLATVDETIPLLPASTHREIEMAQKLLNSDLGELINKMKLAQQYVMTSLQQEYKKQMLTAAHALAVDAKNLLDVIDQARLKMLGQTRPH
Proto-oncogene tyrosine-protein kinase Src, sequence (P12931 2-536 limits assumed): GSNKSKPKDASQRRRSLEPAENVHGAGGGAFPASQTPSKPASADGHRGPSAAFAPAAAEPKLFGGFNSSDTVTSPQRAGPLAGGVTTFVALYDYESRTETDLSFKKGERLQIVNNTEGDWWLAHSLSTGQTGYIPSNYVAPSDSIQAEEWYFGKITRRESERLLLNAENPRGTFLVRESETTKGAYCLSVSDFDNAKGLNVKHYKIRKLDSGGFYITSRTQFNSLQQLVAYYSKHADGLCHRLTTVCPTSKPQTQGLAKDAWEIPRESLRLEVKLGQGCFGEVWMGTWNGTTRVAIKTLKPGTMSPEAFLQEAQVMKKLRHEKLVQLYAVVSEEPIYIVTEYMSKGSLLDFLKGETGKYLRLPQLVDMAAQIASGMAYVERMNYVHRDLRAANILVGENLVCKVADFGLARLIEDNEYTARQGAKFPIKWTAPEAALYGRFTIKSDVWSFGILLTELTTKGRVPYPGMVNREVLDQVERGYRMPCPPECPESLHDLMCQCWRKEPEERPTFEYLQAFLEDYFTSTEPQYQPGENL
Tyrosine-protein kinase HCK, sequence (P08631 whole entry): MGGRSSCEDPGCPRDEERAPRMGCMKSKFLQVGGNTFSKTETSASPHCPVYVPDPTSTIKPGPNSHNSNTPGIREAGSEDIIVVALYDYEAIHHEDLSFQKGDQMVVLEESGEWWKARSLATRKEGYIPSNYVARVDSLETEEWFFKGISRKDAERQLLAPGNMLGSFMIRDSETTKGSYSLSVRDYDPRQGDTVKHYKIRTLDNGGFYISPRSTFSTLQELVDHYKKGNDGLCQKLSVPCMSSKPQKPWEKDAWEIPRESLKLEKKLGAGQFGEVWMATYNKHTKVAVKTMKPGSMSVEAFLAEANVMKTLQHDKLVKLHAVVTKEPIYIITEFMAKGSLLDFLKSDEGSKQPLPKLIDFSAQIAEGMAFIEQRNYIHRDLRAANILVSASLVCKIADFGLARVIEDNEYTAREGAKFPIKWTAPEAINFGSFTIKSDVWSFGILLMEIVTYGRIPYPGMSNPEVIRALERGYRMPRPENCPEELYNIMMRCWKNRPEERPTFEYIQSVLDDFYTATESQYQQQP
Receptor tyrosine-protein kinase erbB-2, sequence (P04626 whole entry): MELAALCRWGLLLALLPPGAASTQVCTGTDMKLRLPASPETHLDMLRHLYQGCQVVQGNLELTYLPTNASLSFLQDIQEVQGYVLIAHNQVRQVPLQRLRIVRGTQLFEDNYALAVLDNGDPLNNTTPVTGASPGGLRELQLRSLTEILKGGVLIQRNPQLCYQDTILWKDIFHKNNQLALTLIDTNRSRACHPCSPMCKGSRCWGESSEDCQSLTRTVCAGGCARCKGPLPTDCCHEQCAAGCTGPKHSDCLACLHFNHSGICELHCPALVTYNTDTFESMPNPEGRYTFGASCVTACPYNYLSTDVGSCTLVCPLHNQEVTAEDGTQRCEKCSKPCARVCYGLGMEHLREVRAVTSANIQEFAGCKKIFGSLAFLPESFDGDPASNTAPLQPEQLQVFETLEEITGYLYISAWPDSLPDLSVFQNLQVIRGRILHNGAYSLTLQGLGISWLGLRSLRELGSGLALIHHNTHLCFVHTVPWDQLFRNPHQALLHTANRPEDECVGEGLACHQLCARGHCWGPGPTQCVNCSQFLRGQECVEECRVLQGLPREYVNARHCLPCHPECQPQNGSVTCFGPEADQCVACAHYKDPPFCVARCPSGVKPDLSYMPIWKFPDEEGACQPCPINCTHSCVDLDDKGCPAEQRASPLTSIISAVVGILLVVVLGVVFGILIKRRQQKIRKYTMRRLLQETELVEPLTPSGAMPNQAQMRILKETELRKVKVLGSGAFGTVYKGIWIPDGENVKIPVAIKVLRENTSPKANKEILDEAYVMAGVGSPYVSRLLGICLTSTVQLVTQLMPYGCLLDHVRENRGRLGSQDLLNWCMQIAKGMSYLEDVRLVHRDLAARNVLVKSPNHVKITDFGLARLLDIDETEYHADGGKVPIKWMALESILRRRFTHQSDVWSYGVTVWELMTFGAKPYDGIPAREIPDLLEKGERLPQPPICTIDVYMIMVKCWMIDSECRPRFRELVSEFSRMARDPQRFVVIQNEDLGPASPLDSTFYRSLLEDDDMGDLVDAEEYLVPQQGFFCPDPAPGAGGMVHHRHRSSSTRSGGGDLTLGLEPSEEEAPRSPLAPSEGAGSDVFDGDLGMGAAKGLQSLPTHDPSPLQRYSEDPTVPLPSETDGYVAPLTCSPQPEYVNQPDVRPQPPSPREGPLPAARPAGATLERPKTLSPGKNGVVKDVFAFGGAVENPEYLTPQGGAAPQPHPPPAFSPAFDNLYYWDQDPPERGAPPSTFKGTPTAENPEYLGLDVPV

For orientation: IC50 means the midpoint of a concentration-inhibition curve. The low end stands for greater potency, the high end for weaker potency. Turning to `Cc1cccc(C(C)(C)C)c1NC(=O)c1sc(NC(=O)OC(C)(C)C)nc1C`, in [1], the IC50 is greater than 50000 nM.

As to `Cc1cc(C)c(NC(=O)c2sc(NC(=O)c3ccccc3)nc2C)c(C)c1`, the values for the IC50 in [1] and in [2] were 320 nM and 800 nM, respectively.

In the case of `Cc1cc(C)c(N(C)C(=O)c2sc(NC(=O)OC(C)(C)C)nc2C)c(C)c1`, the IC50 result in [3] and in assay [4] was “Not Active” each time.

`Cc1cccc(Cl)c1NC(=O)c1sc(NC(=O)C2CC2)nc1C`: in assay [2], half-maximal inhibition (IC50) required 1400 nM.

Take `Cc1nc(NC(=O)OC(C)(C)C)sc1C(=O)N1CCN(C=O)CC1`: the IC50 in assay [1] was greater than 50000 nM.

`Cc1cccc(Cl)c1NC(=O)c1cnc(NC(=O)C2CC2)s1`: the IC50 in [5] was greater than 25000 nM; in [6] it was greater than 25000 nM; on Focal adhesion kinase 1 it was greater than 25000 nM; in assay [7] it was 71 nM; in assay [8] it was greater than 25000 nM; in assay [9], 310 nM. Further, the IC50 in [10] turned out to be 44 nM; in assay [11], 10 nM; in [12] it was 35 nM; in [2] it was 35 nM.

On to `Cc1nc(NC(=O)OC(C)(C)C)sc1C(=O)NCC1CCCCC1`, for which the IC50 in [1] was greater than 50000 nM.

In the case of `Cc1cccc(C)c1NC(=O)c1sc(NC(=O)OC(C)(C)C)nc1C`, the IC50 came out at 4400 nM in assay [13] and 7500 nM in assay [14].

On to `CCc1nc(NC(=O)OC(C)(C)C)sc1C(=O)Nc1c(C)cc(C)cc1C`, for which the IC50 in assay [2] is greater than 30000 nM.

As for `CNC(=O)Nc1nc(C)c(C(=O)Nc2c(C)cc(C)cc2C)s1`, the IC50 in [1] is 170 nM; in [2], 240 nM.

On to `COc1cccc(C)c1NC(=O)c1sc(NC(=O)OC(C)(C)C)nc1C`, for which, in assay [1], it took 24300 nM to reach half-maximal inhibition (IC50).

Turning to `Cc1cc(Br)cc(C)c1NC(=O)c1sc(NC(=O)OC(C)(C)C)nc1C`, the IC50 came out at 1400 nM in assay [13] and 2400 nM in assay [14].

For the molecule `CCCCNC(=O)Nc1nc(C)c(C(=O)Nc2c(C)cc(C)cc2C)s1`, the results for the IC50 in [1] and in assay [2] were 70 nM and 30 nM, respectively.

Consider `Cc1cccc(Cl)c1NC(=O)c1sc(NC(=O)c2ccccc2)nc1C`, for which the IC50 in [2] came out at 4500 nM.

On to `Cc1cc(C)c(NC(=O)c2sc(NC(=O)OC(C)(C)C)nc2C)c(C)c1`, for which the IC50 in [13] was found to be 1500 nM; in assay [14] it was 3000 nM.

Molecule `Cc1ccccc1NC(=O)c1sc(NC(=O)OC(C)(C)C)nc1C` returned an IC50 in [1] of 45700 nM.

For the molecule `Cc1nc(NC(=O)OC(C)(C)C)sc1C(=O)NCC(C)(C)C`, the IC50 in [1] is greater than 50000 nM.

As for `Cc1nc(NC(=O)OC(C)(C)C)sc1C(=O)NC(C)C(C)C` (centres undefined), the IC50 in assay [1] and in [2] was greater than 50000 nM each time.

Consider `Cc1nc(NC(=O)OC(C)(C)C)sc1C(=O)Nc1ccccc1`, for which the IC50 in [1] is greater than 50000 nM.

For `Cc1nc(NC(=O)OC(C)(C)C)sc1C(=O)Nc1ccc(Cl)cc1Cl`, the IC50 in assay [1] was greater than 50000 nM.

For `Cc1cc(C)c(NC(=O)c2sc(N)nc2C)c(C)c1`, the IC50 stood at 5000 nM in assay [13] and 6600 nM in assay [14].

Molecule `Cc1cccc(Cl)c1NC(=O)c1cnc(NC(=O)c2ccccc2)s1` had an IC50 in assay [2] of 890 nM.

As for `Cc1cc(C)c(NC(=O)c2cnc(NC(=O)OC(C)(C)C)s2)c(C)c1`, the IC50 in assay [2] is greater than 30000 nM.

`Cc1nc(NC(=O)OC(C)(C)C)sc1C(=O)Nc1c(Cl)cccc1Cl` displayed a 50% inhibitory concentration (IC50) in assay [15] of 12500 nM.

The molecule `Cc1cccc(C(C)C)c1NC(=O)c1sc(NC(=O)OC(C)(C)C)nc1C` showed an IC50 in assay [1] of 40300 nM.

Consider `Cc1nc(NC(=O)OC(C)(C)C)sc1C(=O)Nc1ccccc1[N+](=O)[O-]`, for which the IC50 in [1] was greater than 50000 nM.

Regarding `Cc1cc(C)c(NC(=O)c2sc(NC(=O)OC(C)(C)C)nc2-c2ccccc2)c(C)c1`, the IC50 in assay [2] is greater than 30000 nM.

In [2], `Cc1cccc(Cl)c1NC(=O)c1sc(NC(=O)c2ccco2)nc1C` had an IC50 of 710 nM.

Consider `COc1cc(NC(=O)c2sc(NC(=O)OC(C)(C)C)nc2C)cc(C(F)(F)F)c1`, for which the IC50 in assay [1] is greater than 50000 nM.

Take `COC(=O)Nc1nc(C)c(C(=O)Nc2c(C)cc(C)cc2C)s1`: the IC50 in [1] came out at 720 nM; in assay [2], 700 nM.

Take `Cc1cc(C)c(NC(=O)c2cnc(NC(=O)C3CC3)s2)c(C)c1`: the 50% inhibitory concentration (IC50) in assay [2] was determined as 18 nM.

In the case of `Cc1cc(C)c(NC(=O)c2sc(NC(=O)OC(C)(C)C)nc2C(F)(F)F)c(C)c1`, the IC50 in assay [2] is greater than 30000 nM.

As to `Cc1cccc(Cl)c1NC(=O)c1sc(NC(=O)OC(C)(C)C)nc1C`, the results for the IC50 in assay [13] and in [14] were 28000 nM and 9600 nM, respectively.

As for `Cc1cc(C)c(NC(=O)c2sc(N(C)C(=O)OC(C)(C)C)nc2C)c(C)c1`, the IC50 entry in [3] and in assay [4] was “Not Active” throughout.

In [2], `Cc1cc(C)c(NC(=O)c2sc(NC(=O)c3ccco3)nc2C)c(C)c1` showed a half-maximal inhibitory concentration (IC50) of 360 nM.

Molecule `Cc1cc(NC(=O)c2sc(NC(=O)OC(C)(C)C)nc2C)c(C)[nH]1` registered an IC50 in [1] greater than 50000 nM.

For `CCCCNC(=O)Nc1nc(C)c(C(=O)Nc2c(C)cccc2Cl)s1`, half-maximal inhibition in assay [2] (IC50) was put at 620 nM.

In turn, `Cc1nc(NC(=O)OC(C)(C)C)sc1C(=O)Nc1c(C(C)C)cccc1C(C)C` returned a 50% inhibitory concentration (IC50) in assay [1] greater than 50000 nM.
